Data: patent publication US3996229A, “1-[10,11-Dihydro-dibenzo[b,f]-thiepin-10-yl]-4-(alkynylalkyl)-piperazines” (Hoffmann-La Roche Inc., priority 1974, dated 1976)

What was measured:
rats [1] = test: "Pole Climbing" Test (neuroleptic properties; blocking of conditioned and unconditioned reaction); type: in vivo, rat; details: for Quotient ED10 (blocking of the unconditioned reaction)/ED50 (blocking of the conditioned reaction) / ED50: rats; for Quotient ED10 (blocking of the unconditioned reaction)/ED50 (blocking of the conditioned reaction): p.o., higher quotient = greater selectivity of the neuroleptic action; for ED50: Rattus norvegicus, po, pole climbing, conditioned impulse (acoustic signal)
Experimental: The neuroleptic properties of the foregoing derivatives were determined numerically on the basis of the following test, i.e., the "pole climbing" test.
This test provides information about the behavior reaction of rats. Rats are trained to avoid, by climbing up a vertical pole in the test chamber, an electrical impulse--unconditioned impulse--released via the wire-latticed floor some seconds after an acoustic signal--conditioned impulse--.
The blocking of the conditioned reaction is designated by the parameter ED50 (mg/kg p.o.) and the blocking of the unconditioned reaction is designated by the parameter ED10 (mg/kg p.o.).
The parameter ED50 --blocking of the conditioned reaction--provides a measure of the neuroleptic activity strength of the derivative under investigation since, with falling value, the neuroleptic activity strength increases.

rats [2] = test: Catalepsy Test; type: in vivo, rat; details: rats, intraperitoneally
Experimental: (§1) Representative dibenzo[b,f]thiepin derivatives of this invention were administered intraperitoneally to rats. The animals are considered to be cataleptic when the homolateral extremities remain in a crossed position for at least 10 seconds. The number of cataleptic animals is noted every 30 minutes for 6 hours.

mouse = test: Acute toxicity in the mouse; type: in vivo; details: acute toxicity, 24 hours
Experimental: (§2) The values relate to a duration of activity over a period of 24 hours: […]

Catalepsy Test = type: in vivo, rat; details: rat, in vivo, ip
Experimental: as §1

[3] = Acute toxicity in the mouse; type: in vivo; details: in vivo, po, period of 24 hours
Experimental: as §2

[4] = pole climbing test, chlorpromazine compared with Derivative A and Derivative B

Structure (SMILES)	neuroleptic activity (in words) (rats [1]; [4])	quality (selectivity) of the neuroleptic activity (in words) (rats [1]; [4])	Quotient ED10 (blocking of the unconditioned reaction)/ED50 (blocking of the conditioned reaction) (rats [1])	cataleptic side-effects (in words) (rats [2])	toxicity (in words) (mouse)	ED50 (rats [1]) [mg/kg]	TD50 at 6 h (Catalepsy Test) [mg/kg]	LD50 at 24 h [3] [mg/kg]
CN(C)CCCN1c2ccccc2Sc2ccc(Cl)cc21 [Chlorpromazine, reference compound]	somewhat stronger activity	clearly inferior	2.5	considerably greater cataleptic activity	clearly inferior			
C#CCN1CCN(C2Cc3ccc(OC)cc3Sc3ccc(Cl)cc32)CC1.CS(=O)(=O)O.CS(=O)(=O)O (stereo not drawn) [Derivative B, 1-[8-Chloro-10,11-dihydro-3-methoxy-dibenzo[b,f]thiepin-10-yl]-4-(2-propynyl)-piperazine dimethanesulfonate]			4	only very slight or no cataleptic side-effects		25	> 100	750
C#CCN1CCN(C2Cc3ccc(OC)cc3Sc3ccc(SC)cc32)CC1.Cl.Cl (stereo not drawn) [Derivative A, 1-[10,11-Dihydro-3-methoxy-8-methylthio-dibenzo[b,f]thiepin-10-yl]-4-(2-propynyl)-piperazine dihydrochloride]			9	only very slight or no cataleptic side-effects		17	88	900
